Experimental data published in US4604380A, “C-23-substituted mycaminosyltylonolide compounds, pharmaceutical compositions and methods of use” (Eli Lilly and Company, priority 1985, dated 1986).
Values after ≈ are worked out from the molar mass of the structure shown. Values joined by “and” are separate entries in the source; they are usually repeats but may differ in a detail not shown here. Identical values can stand only once. Like-named read-outs stand apart in the source and are kept apart here.

What was measured:
[1] = test system: Haemophilus influenzae 76; assay: MIC, standard agar-dilution assay (Table III); format: cell-based; conditions: agar dilution; Haemophilus influenzae 76, ampicillin-resistant strain; read-out: MIC
Protocol: (§1) The MIC's s in Table III were determined by standard agar-dilution assays. The MIC's in Table IV were obtained using a conventional broth-dilution microtiter test.

[2] = test system: Haemophilus influenzae C.L.; assay: MIC, standard agar-dilution assay (Table III); format: cell-based
Protocol: as §1

[3] = test system: Staphylococcus aureus S13E; assay: MIC, standard agar-dilution assay (Table III); format: cell-based
Protocol: as §1

[4] = test system: Staphylococcus aureus V41; assay: MIC, standard agar-dilution assay (Table III); format: cell-based; conditions: Staphylococcus aureus V41, penicillin-resistant strain
Protocol: as §1

[5] = test system: Staphylococcus aureus X1.1; assay: MIC, standard agar-dilution assay (Table III); format: cell-based
Protocol: as §1

[6] = test system: Staphylococcus aureus X400; assay: MIC, standard agar-dilution assay (Table III); format: cell-based; conditions: Staphylococcus aureus, X400
Protocol: as §1

[7] = test system: Staphylococcus epidermidis 222; assay: MIC, standard agar-dilution assay (Table III); format: cell-based
Protocol: as §1

[8] = test system: Staphylococcus epidermidis EPI1; assay: MIC, standard agar-dilution assay (Table III); format: cell-based
Protocol: as §1

[9] = test system: Streptococcus Group D 2041; assay: MIC, standard agar-dilution assay (Table III); format: cell-based; conditions: GROUPD2041
Protocol: as §1

[10] = test system: Streptococcus Group D X66; assay: MIC, standard agar-dilution assay (Table III); format: cell-based
Protocol: as §1

[11] = test system: Streptococcus pyogenes C203; assay: MIC, standard agar-dilution assay (Table III); format: cell-based
Protocol: as §1

[12] = test system: Streptococcus pneumoniae Park I; assay: microbe, parasite or virus in culture; format: cell-based
Protocol: as §1

[13] = test system: Staphylococcus aureus; assay: ED50 vs. Staphylococcus aureus experimental infection in mice (Table V); format: in vivo; conditions: two doses, dose protecting 50% of animals
Protocol: (§2) Certain formula 1a compounds have also shown in vivo antimicrobial activity against experimental bacterial infections. When two doses of test compound were administered to mice in experimental infections, the activity observed was measured as an ED50 value [effective dose in mg/kg to protect 50% of the test animals: see Warren Wick, et al., J. Bacteriol. 81, 233-235 (1961)].

[14] = test system: Streptococcus pyogenes; assay: ED50 vs Streptococcus pyogenes experimental infection in mice (Table VI); format: in vivo; conditions: two doses, several values = results from more than one test
Protocol: as §2

[15] = test system: Streptococcous pneumoniae; assay: ED50 vs. Streptococcous pneumoniae experimental infection in mice (Table VII); format: in vivo; conditions: two doses; for ED50: Mus musculus
Protocol: as §2

[16] = agar dilution, Staphylococcus epidermidis 222, read-out: MIC
[17] = Staphylococcus epidermidis, EPI1
[18] = sc, subcutaneous, read-out: ED50 Subcutaneous
[19] = agar dilution, Streptococcus pyogenes C203, read-out: MIC
[20] = agar dilution, Streptococcus pneumoniae Park I, read-out: MIC
[21] = agar dilution, Haemophilus influenzae C.L., ampicillin-sensitive strain, read-out: MIC
[22] = agar dilution, Streptococcus Group D 2041, read-out: MIC
[23] = agar dilution, Streptococcus Group D X66, read-out: MIC

| Compound | MIC [1] | MIC ([2]; Haemophilus influenzae) | MIC [3] | MIC [4] | MIC [5] | MIC [6] | MIC [7, 16] | MIC [8, 17] | MIC [9] | MIC [10] | MIC ([11]; Streptococcus pyogenes, C203) | ED50 [13, 18] | ED50 [14, 18] | ED50 [15, 18] | MIC [11, 19] | MIC [12, 20] | ED50 ([14]; po, read-out: ED50 Oral) | MIC [2, 21] | MIC [9, 22] | MIC [10, 23] | also measured |
| --- | --- | --- | --- | --- | --- | --- | --- | --- | --- | --- | --- | --- | --- | --- | --- | --- | --- | --- | --- | --- | --- |
| CCC1OC(=O)CC(O)C(C)C(OC2OC(C)C(O)C(N(C)C)C2O)C(CC=O)CC(C)C(=O)C=CC(C)=CC1CN1CCC2CCCCC2C1 (stereo not drawn) [Compound 33, 23-deoxy-23-(octahydro-1H--isoquinolin-2-yl)-OMT] | 0.25 µg/mL (≈ 0.348 µM) | 0.5 µg/mL (≈ 0.695 µM) | 0.5 µg/mL (≈ 0.695 µM) | 0.5 µg/mL (≈ 0.695 µM) | 0.5 µg/mL (≈ 0.695 µM) | 0.25 µg/mL (≈ 0.348 µM) | 0.125 µg/mL (≈ 0.174 µM) | 0.5 µg/mL (≈ 0.695 µM) | 0.5 µg/mL (≈ 0.695 µM) | 0.5 µg/mL (≈ 0.695 µM) | 0.03 µg/mL (≈ 0.0417 µM) | 7.56 mg/kg | > 10 mg/kg | 10 mg/kg |  |  |  |  |  |  | MIC ([12]; Streptococcus pneumoniae, read-out: MIC): 0.06 µg/mL (≈ 0.0835 µM) |
| CCC1OC(=O)CC(O)C(C)C(OC2OC(C)C(O)C(N(C)C)C2O)C(CC=O)CC(C)C(=O)C=CC(C)=CC1CN(Cc1ccccc1)C1CC2CCC1C2 (stereo not drawn) [Compound 6, 23-deoxy-23-[N--benzyl-N--(bicyclo[2.2.1]hept-2-yl)amino]-OMT] | 0.5 µg/mL (≈ 0.64 µM) | 1 µg/mL (≈ 1.28 µM) | 0.25 µg/mL (≈ 0.32 µM) | 0.25 µg/mL (≈ 0.32 µM) | 0.25 µg/mL (≈ 0.32 µM) | 0.25 µg/mL (≈ 0.32 µM) | 0.06 µg/mL (≈ 0.0768 µM) | 0.25 µg/mL (≈ 0.32 µM) | 0.25 µg/mL (≈ 0.32 µM) | 0.25 µg/mL (≈ 0.32 µM) |  |  | > 10 mg/kg |  | 0.06 µg/mL (≈ 0.0768 µM) | 0.125 µg/mL (≈ 0.16 µM) | > 100 mg/kg |  |  |  |  |
| CCC1OC(=O)CC(O)C(C)C(OC2OC(C)C(O)C(N(C)C)C2O)C(CC=O)CC(C)C(=O)C=CC(C)=CC1CN1CC2CC=CCC2C1 (stereo not drawn) [Compound 37] | 1 µg/mL (≈ 1.42 µM) |  | 0.25 µg/mL (≈ 0.356 µM) | 0.25 µg/mL (≈ 0.356 µM) | 0.25 µg/mL (≈ 0.356 µM) | 0.25 µg/mL (≈ 0.356 µM) |  | 0.25 µg/mL (≈ 0.356 µM) |  |  | 0.06 µg/mL (≈ 0.0854 µM) | 2.74 mg/kg |  | 1.66 mg/kg |  | 0.125 µg/mL (≈ 0.178 µM) | 87 mg/kg | 0.5 µg/mL (≈ 0.711 µM) | 0.25 µg/mL (≈ 0.356 µM) | 0.125 µg/mL (≈ 0.178 µM) | MIC ([7]; Staphylococcus epidermidis, 222): 0.06 µg/mL (≈ 0.0854 µM); ED50 ([13]; po, read-out: ED50 Oral): 85 mg/kg; ED50 Subcutaneous ([13]; subcutaneous): 3.92 mg/kg × 2 and 3.42 mg/kg × 2; ED50 ([15]; po, read-out: ED50 Oral): 87 mg/kg; ED50 Subcutaneous ([15]; subcutaneous): 2.97 mg/kg × 2 |
| CCC1OC(=O)CC(O)C(C)C(OC2OC(C)C(O)C(N(C)C)C2O)C(CC=O)CC(C)C(=O)C=CC(C)=CC1CN1CCc2ccccc2C1 (stereo not drawn) [Compound 29, 23-deoxy-23-(3,4-dihydro-1H--isoquinolin-2-yl)-OMT] | 1 µg/mL (≈ 1.4 µM) |  | 0.25 µg/mL (≈ 0.351 µM) | 0.25 µg/mL (≈ 0.351 µM) | 0.25 µg/mL (≈ 0.351 µM) | 0.25 µg/mL (≈ 0.351 µM) | 0.125 µg/mL (≈ 0.175 µM) |  |  |  |  | > 10 mg/kg | > 10 mg/kg | > 10 mg/kg | 0.06 µg/mL (≈ 0.0842 µM) |  |  | 1 µg/mL (≈ 1.4 µM) | 0.25 µg/mL (≈ 0.351 µM) | 0.125 µg/mL (≈ 0.175 µM) | MIC ([8]; agar dilution, Staphylococcus epidermidis EPI1, read-out: MIC): 0.125 µg/mL (≈ 0.175 µM); MIC ([12]; Streptococcus pneumoniae): 0.03 µg/mL (≈ 0.0421 µM) |
